This passage reports IC50 results from patent US9062070B2, “Inhibitors of the renal outer medullary potassium channel” (Merck Sharp & Dohme Corp., priority 2011, dated 2015).

In one experiment the target is hROMK (hKir1.1) (Homo sapiens (Human), UniProt P48048). The experiment can be described thus: Thallium Flux Assay (ROMK channel functional thallium flux, FLIPR-Tetra). It is filed as cell-based. The settings on record: HEK293 cells stably expressing hROMK (hKir1.1). As to the method:
HEK293 cells stably expressing hROMK (hKir1.1) were grown at 37° C. in a 10% CO2 humidified incubator in complete growth media: Dulbecco's Modified Eagle Medium supplemented with non-essential amino acids, Penicillin/Streptomycin/Glutamine, G418 and FBS. At >80% confluency, aspirate the media from the flask and rinse with 10 mL Calcium/Magnesium-free PBS. Add 5 mL of 1× trypsin (prepared in Ca/Mg Free PBS) to T-225 flask and return flask to 37° C./CO2 incubator for 2-3 minutes. To dislodge the cell, gently bang the side of the flask with your hand. Triturate the cells completely and then transfer the cells to 25 mL complete media. Centrifuge at 1,500 rpm for 6 min followed by resuspension in complete growth media and determine cell concentration. For typical re-seeding, 4E6 cells/T-225 flask will attain>80% confluency in 4 days. Under ideal growth conditions and appropriate tissue culture practices, this cell line is stable for 40-45 passages.
• FluxOR™ Reagent (Component A) • FluxOR™ Assay Buffer (Component B)—10× Concentrate • PowerLoad™ Concentrate (Component C)—100× Concentrate • Probenecid (Component D)—Lyophilized sample is kept at −20° C. Water soluble, 100× after solubilization in 1 mL water. Store at 4° C. • FluxOR™ Chloride-free Buffer (Component E)—5× Concentrate • Potassium sulfate (K2SO4) Concentrate (Component F)—125 mM in water. Store at 4° C. • Thallium sulfate (Tl2SO4) Concentrate (Component G)—50 mM in water. Store at 4° C. • DMSO (dimethyl sulfoxide, Component H)—1 mL (100%) Reagent Preparation: FluxOR Working Solutions • 1000× FluxOR™ Reagent: Reconstitute a vial of component A in 100 μl DMSO; Mix well; Store 10 μl aliquots at −20° C. • 1× FluxOR™ Assay Buffer: Dilute Component B 10-fold with water; Adjust pH to 7.4 with Hepes/NaOH; Filter and store at 4° C. • Probenecid/Assay Buffer: 100 mL of 1× FluxOR™ Assay Buffer; 1 mL of reconstituted component D; Store at 4° C. • Loading Buffer (per microplate): 10 μl 1000× FluxOR™ Reagent; 100 μl component C; 10 mL Probenecid/Assay Buffer • Compound Buffer (per microplate): 20 mL Probenecid/Assay Buffer; 0.3 mM ouabain (10 mM ouabain in water can be stored in amber bottle/aluminum foil at room temperature); Test compound • 1× FluxOR™ Chloride-Free Buffer: Prepare 1× working solution in water. Can be stored at room temperature • Stimulant Buffer (prepared at 5× final concentration in 1× FluxOR™ Chloride-Free Buffer): 7.5 mM Thallium sulfate and 0.75 mM Potassium sulfate (to give a final assay concentration of 3 mM Thallium/0.3 mM Potassium). Store at 4° C. when not in use. If kept sterile, this solution is good for months. Assay Protocol—
The ROMK channel functional thallium flux assay is performed in 384 wells, using the FLIPR-Tetra instrument. HEK-hKir1.1 cells are seeded in Poly-D-Lysine microplates and kept in a 37° C.-10% CO2 incubator overnight. On the day of the experiment, the growth media is replaced with the FluxOR™ reagent loading buffer and incubated, protected from light, at ambient temperature (23-25° C.) for 90 min. The loading buffer is replaced with assay buffer±test compound followed by 30 min incubation at ambient temperature, where the Thallium/Potassium stimulant is added to the microplate.
• 1. Seed HEK-hKir1.1 cells (50 μl at 20,000 cells/well) in 384-well PDL coated Microplates • 2. Allow cells to adhere overnight in humidified 37° C./10% CO2 incubator • 3. Completely remove cell growth media from microplate and replace with 25 μl loading buffer • 4. Incubate Microplate at room temperature, protected form light, for 90 min • 5. Remove loading buffer and replace with 25 μl 1× Assay Buffer±test compound. • 6. Incubate microplate at room temperature, protected form light, for 30 min • 7. At FLIPR-Tetra 384: Add stimulant (Thallium/Potassium) solution to microplate and monitor fluorescence. Excitation=400 nm, Emission=460 & 580 nm. Collect data for ˜10 min. Data Calculation—

In the next experiment the target is Kir1.1 (ROMK1) (Homo sapiens (Human), UniProt P48048). As to the kind of experiment: Electrophysiology Assay (whole cell voltage clamp, IonWorks Quattro). It is filed as cell-based. Conditions: Chinese hamster ovary cells stably expressing Kir1.1; block during voltage step to 0 mV. As to the method: Block of Kir1.1 (ROMK1) currents was examined by whole cell voltage clamp (Hamill et. al. […] Prior to an experiment, Kir1.1 expression was induced by overnight incubation with 1 mM sodium butyrate. […] After centrifugation, the cell pellet was resuspended in approximately 4.0 mL of bath solution and placed in the IonWorks instrument. The intracellular solution consisted of (in mM): 80 K gluconate, 40 KCl, 20 KF, 3.2 MgCl2, 3 EGTA, 5 Hepes, pH 7.4. […] Amphotericin B (Sigma A-4888) was prepared as a 40 mg/mL solution in DMSO. Voltage protocols and current recordings were performed using the IonWorks HT software/hardware system. […] No correction for liquid junction potentials was used. The test pulse, consisting of a 100 ms step to 0 mV from a holding potential of −70 mV, followed by a 100 ms voltage ramp from −70 mV to +70 mV, was applied before and after a 6 min compound incubation period. Test compounds were prepared by diluting DMSO stock solutions into the bath solution at 3× the final concentration and placed in the instrument in 96-well polypropylene plates. Current amplitudes were measured using the IonWorks software. To assess compound potency, the fractional block during the voltage step to 0 mV was calculated in Microsoft Excel (Microsoft, Redmond, Calif.), and dose-response curves were fitted with Igor Pro 4.0 (WaveMetrics, Lake Oswego, Oreg.).
For orientation: Patch clamp records ionic current or voltage across a cell membrane.

Kir1.1 (ROMK1), sequence (P48048 whole entry): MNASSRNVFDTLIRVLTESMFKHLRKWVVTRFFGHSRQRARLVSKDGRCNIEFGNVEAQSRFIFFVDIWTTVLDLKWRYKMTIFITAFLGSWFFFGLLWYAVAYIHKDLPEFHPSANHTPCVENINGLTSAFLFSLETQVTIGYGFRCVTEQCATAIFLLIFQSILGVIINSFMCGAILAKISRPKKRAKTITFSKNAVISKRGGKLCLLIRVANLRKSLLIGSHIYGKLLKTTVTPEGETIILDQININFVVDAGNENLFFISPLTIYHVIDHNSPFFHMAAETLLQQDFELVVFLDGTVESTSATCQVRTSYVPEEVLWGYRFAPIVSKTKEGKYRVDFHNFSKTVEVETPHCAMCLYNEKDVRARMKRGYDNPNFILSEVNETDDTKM
hROMK (hKir1.1), sequence (P48048 whole entry): as above

In general, IC50 refers to the concentration needed to halve the response being measured. Read a low IC50 as greater potency in that assay. Consider `Cc1c([C@@H]2CN3CCN(C(=O)C4CCc5nc(-n6cnnn6)ccc54)C[C@H]3CO2)csc1C#N` (stereo partly shown) [Example 15], for which the IC50 against hROMK (hKir1.1) was found to be 540 nM; against Kir1.1 (ROMK1), 60 nM.
Take `N#Cc1c(F)ccc([C@@H]2CN3CCN(C(=O)C4CCc5nc(-n6cnnn6)ccc54)C[C@H]3CO2)c1F` (stereo partly shown) [Example 18]: the results for the IC50 against hROMK (hKir1.1) and against Kir1.1 (ROMK1) were 400 nM and 110 nM, respectively.
In the case of `N#Cc1c(F)ccc([C@H]2CN3CCN(C(=O)C4CCc5nc(-n6cnnn6)ccc54)C[C@H]3CO2)c1F` (stereo partly shown) [Example 19], the IC50 at hROMK (hKir1.1) was 420 nM; against Kir1.1 (ROMK1) it was 90 nM.
For the molecule `N#Cc1c(F)ccc([C@@H]2CN3CCN(C(=O)C4CCc5nc(-n6cnnn6)ccc54)C[C@@H]3CO2)c1F` (stereo partly shown) [Example 20], the IC50 on hROMK (hKir1.1) stood at 230 nM; against Kir1.1 (ROMK1) it was 80 nM.
As to `N#Cc1c(F)ccc([C@H]2CN3CCN(C(=O)C4CCc5nc(-n6cnnn6)ccc54)C[C@@H]3CO2)c1F` (stereo partly shown) [Example 21], the IC50 at hROMK (hKir1.1) came out at 240 nM; against Kir1.1 (ROMK1), 80 nM.
With `N#Cc1c(F)ccc([C@@H]2CN3CCN(C(=O)C4CCc5cc(-n6cnnn6)ncc54)C[C@H]3CO2)c1F` (stereo partly shown) [Example 22], the IC50 against hROMK (hKir1.1) came out at 160 nM; on Kir1.1 (ROMK1) it was 40 nM.
On the same counts, the results for `N#Cc1c(F)ccc([C@H]2CN3CCN(C(=O)C4CCc5cc(-n6cnnn6)ncc54)C[C@@H]3CO2)c1F` (stereo partly shown) [Example 23] are 540 nM and 150 nM.
The matching figures for `N#Cc1c(F)ccc([C@@H]2CN3CCN(C(=O)C4CCc5cc(-n6cnnn6)ncc54)C[C@@H]3CO2)c1F` (stereo partly shown) [Example 24]: 110 nM and 200 nM.
The matching figures for `N#Cc1c(F)ccc([C@H]2CN3CCN(C(=O)C4CCc5cc(-n6cnnn6)ncc54)C[C@H]3CO2)c1F` (stereo partly shown) [Example 25]: 100 nM and 60 nM.
Take `N#Cc1c(F)ccc([C@@H]2CN3CCN(C(=O)C4CCc5nc(-n6cnnn6)ccc54)C[C@H]3CO2)c1Cl` (stereo partly shown) [Example 26]: the figures for the IC50 at hROMK (hKir1.1) and on Kir1.1 (ROMK1) were 220 nM and 110 nM, respectively.
The matching figures for `N#Cc1c(F)ccc([C@@H]2CN3CCN(C(=O)C4CCc5nc(-n6cnnn6)ccc54)C[C@H]3CO2)c1Cl` (stereo partly shown) [Example 27]: 230 nM and 120 nM.
In the case of `N#Cc1c(F)ccc([C@H]2CN3CCN(C(=O)C4CCc5nc(-n6cnnn6)ccc54)C[C@H]3CO2)c1Cl` (stereo partly shown) [Example 28], the results for the IC50 against hROMK (hKir1.1) and at Kir1.1 (ROMK1) were 220 nM and 120 nM, respectively.
In the case of `N#Cc1c(F)ccc([C@H]2CN3CCN(C(=O)C4CCc5nc(-n6cnnn6)ccc54)C[C@H]3CO2)c1Cl` (stereo partly shown) [Example 29], the IC50 against hROMK (hKir1.1) was found to be 450 nM; against Kir1.1 (ROMK1) it was 140 nM.
With `N#Cc1c(F)ccc([C@H]2CN3CCN(C(=O)C4CCc5nc(-n6cnnn6)ccc54)C[C@@H]3CO2)c1Cl` (stereo partly shown) [Example 30], the figures for the IC50 on hROMK (hKir1.1) and at Kir1.1 (ROMK1) were 290 nM and 190 nM, respectively.
On the same counts, the results for `N#Cc1c(F)ccc([C@@H]2CN3CCN(C(=O)C4CCc5cc(-n6cnnn6)ncc54)C[C@H]3CO2)c1Cl` (stereo partly shown) [Example 31] are 110 nM and 80 nM.
For the molecule `N#Cc1c(F)ccc([C@H]2CN3CCN(C(=O)C4CCc5cc(-n6cnnn6)ncc54)C[C@H]3CO2)c1Cl` (stereo partly shown) [Example 32], the results for the IC50 against hROMK (hKir1.1) and against Kir1.1 (ROMK1) were 130 nM and 70 nM, respectively.
The matching figures for `Cc1c([C@H]2CN3CCN(C(=O)C4CCc5nc(-n6cnnn6)ccc54)C[C@@H]3CO2)ccc(F)c1C#N` (stereo partly shown) [Example 34]: 120 nM and 160 nM.
For `Cc1c([C@H]2CN3CCN(C(=O)C4CCc5cc(-n6cnnn6)ncc54)C[C@H]3CO2)ccc(F)c1C#N` (stereo partly shown) [Example 36], the IC50 against hROMK (hKir1.1) turned out to be 660 nM; on Kir1.1 (ROMK1) it was 140 nM.
On the same counts, the results for `Cc1c([C@@H]2CN3CCN(C(=O)C4CCc5cc(-n6cnnn6)cnc54)C[C@H]3CO2)ccc(F)c1C#N` (stereo partly shown) [Example 37] are 810 nM and 240 nM.
The matching figures for `Cc1c([C@@H]2CN3CCN(C(=O)C4CCc5cc(-n6cnnn6)cnc54)C[C@H]3CO2)ccc(F)c1C#N` (stereo partly shown) [Example 38]: 900 nM and 280 nM.
As to `Cc1c([C@H]2CN3CCN(C(=O)C4CCc5cc(-n6cnnn6)cnc54)C[C@@H]3CO2)ccc(F)c1C#N` (stereo partly shown) [Example 39], the IC50 against hROMK (hKir1.1) amounted to 600 nM; at Kir1.1 (ROMK1), 390 nM.
The matching figures for `Cc1c([C@H]2CN3CCN(C(=O)C4CCc5cc(-n6cnnn6)ncc54)C[C@@H]3CO2)ccc(F)c1C#N` (stereo partly shown) [Example 40]: 270 nM and 120 nM.
On the same counts, the results for `Cc1c([C@H]2CN3CCN(C(=O)C4CCc5cc(-n6cnnn6)ncc54)C[C@@H]3CO2)ccc(F)c1C#N` (stereo partly shown) [Example 41] are 720 nM and 110 nM.
On the same counts, the results for `Cc1c([C@@H]2CN3CCN(C(=O)C4CCc5cc(-n6cnnn6)ncc54)C[C@@H]3CO2)ccc(F)c1C#N` (stereo partly shown) [Example 42] are 350 nM and 130 nM.
On to `Cc1c([C@@H]2CN3CCN(C(=O)C4CCc5cc(-n6cnnn6)ncc54)C[C@@H]3CO2)ccc(F)c1C#N` (stereo partly shown) [Example 43], for which the IC50 was 850 nM against hROMK (hKir1.1) and 130 nM at Kir1.1 (ROMK1).
`Cc1c([C@@H]2CN3CCN(C(=O)C4CCc5cc(-n6cnnn6)ncc54)C[C@H]3CO2)ccc(F)c1C#N` (stereo partly shown) [Example 44]: the IC50 against hROMK (hKir1.1) and against Kir1.1 (ROMK1) was 170 nM in each case.
As for `O=C1OCCc2cc([C@@H]3CN4CCN(C(=O)C5CCc6cc(-n7cnnn7)ncc65)C[C@H]4CO3)ccc21` (stereo partly shown) [Example 45], the IC50 turned out to be 600 nM against hROMK (hKir1.1) and 220 nM against Kir1.1 (ROMK1).
On the same counts, the results for `COc1cc([C@H]2CN3CCN(C(=O)C4CCc5nc(-n6cnnn6)ccc54)C[C@H]3CO2)ccc1C#N` (stereo partly shown) [Example 51] are 580 nM and 190 nM.
As to `COc1c([C@@H]2CN3CCN(C(=O)C4CCc5cc(-n6cnnn6)ncc54)C[C@H]3CO2)ccc(F)c1C#N` (stereo partly shown) [Example 52], the IC50 against hROMK (hKir1.1) was 420 nM; at Kir1.1 (ROMK1), 220 nM.
